In the supplement of paper PMC10307832:

Assays:
Test in all cases: relative viability (nuclei count vs DMSO), 5 days (fraction); higher = more cells survive
[1] = system: BEN
In short: (§1)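 Lung cancer cell lines in 1536-well plates got either a single drug or a fixed anchor-drug dose together with five library-drug doses (not always all listed) in √10 steps, by pin tool, on the day after seeding. Nuclei were counted after 5 days, and relative viability is the treated-to-vehicle ratio of nuclei counts. Values are medians of duplicate plates.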

[2] = system: EKVX
In short: as §1

[3] = system: HARA
In short: as §1

[4] = system: HCC-366
In short: as §1

[5] = system: HCC-827
In short: as §1

[6] = system: LOU-NH91
In short: as §1

[7] = system: NCI-H1355
In short: as §1

[8] = system: NCI-H1395
In short: as §1

[9] = system: NCI-H1437
In short: as §1

[10] = system: NCI-H1734
In short: as §1

[11] = system: NCI-H1792
In short: as §1

[12] = system: NCI-H1993; conditions: first compound 0.005 µM
In short: as §1

Q: With `Nc1ccn([C@@H]2O[C@H](CO)[C@@H](O)[C@@H]2O)c(=O)n1` [Cytarabine] + CC(=O)Nc1cccc(-n2c(=O)n(C3CC3)c(=O)c3c(Nc4ccc(I)cc4F)n(C)c(=O)c(C)c32)c1 [Trametinib] (partner 0.02 µM) as the molecule, how does the relative viability ([1]; first compound 0.005 µM) read?
A: 1.08

Q: And the relative viability ([1]; first compound 0.01581 µM)?
A: 0.897

Q: What about the relative viability ([1]; first compound 0.05 µM) of the same molecule?
A: 0.781

Q: What about the relative viability ([1]; first compound 0.1581 µM) of the same molecule?
A: 0.553

Q: And the relative viability ([1]; first compound 0.5 µM)?
A: 0.372

Q: And the relative viability ([2]; first compound 0.005 µM)?
A: 0.584

Q: What about the relative viability ([2]; first compound 0.01581 µM) of the same molecule?
A: 0.285

Q: What about the relative viability ([2]; first compound 0.05 µM) of the same molecule?
A: 0.295

Q: What about the relative viability ([2]; first compound 0.5 µM) of the same molecule?
A: 0.167

Q: And the relative viability ([3]; first compound 0.005 µM)?
A: 1.03

Q: What about the relative viability ([3]; first compound 0.01581 µM) of the same molecule?
A: 0.354

Q: What about the relative viability ([3]; first compound 0.05 µM) of the same molecule?
A: 0.335

Q: What about the relative viability ([3]; first compound 0.1581 µM) of the same molecule?
A: 0.204

Q: What about the relative viability ([3]; first compound 0.5 µM) of the same molecule?
A: 0.231

Q: What about the relative viability ([4]; first compound 0.005 µM) of the same molecule?
A: 0.276

Q: And the relative viability ([4]; first compound 0.01581 µM)?
A: 0.33

Q: What about the relative viability ([4]; first compound 0.05 µM) of the same molecule?
A: 0.178

Q: What about the relative viability ([4]; first compound 0.1581 µM) of the same molecule?
A: 0.0948

Q: And the relative viability ([4]; first compound 0.5 µM)?
A: 0.086

Q: What about the relative viability ([5]; first compound 0.005 µM) of the same molecule?
A: 0.362

Q: What about the relative viability ([5]; first compound 0.01581 µM) of the same molecule?
A: 0.313

Q: What about the relative viability ([5]; first compound 0.05 µM) of the same molecule?
A: 0.239

Q: What about the relative viability ([5]; first compound 0.1581 µM) of the same molecule?
A: 0.188

Q: What about the relative viability ([5]; first compound 0.5 µM) of the same molecule?
A: 0.154

Q: And the relative viability ([6]; first compound 0.005 µM)?
A: 0.758

Q: And the relative viability ([6]; first compound 0.01581 µM)?
A: 0.807

Q: And the relative viability ([6]; first compound 0.05 µM)?
A: 0.699

Q: And the relative viability ([6]; first compound 0.1581 µM)?
A: 0.657

Q: What about the relative viability ([6]; first compound 0.5 µM) of the same molecule?
A: 0.644

Q: And the relative viability ([7]; first compound 0.005 µM)?
A: 0.367

Q: And the relative viability ([7]; first compound 0.01581 µM)?
A: 0.38

Q: What about the relative viability ([7]; first compound 0.05 µM) of the same molecule?
A: 0.398

Q: What about the relative viability ([7]; first compound 0.1581 µM) of the same molecule?
A: 0.303

Q: What about the relative viability ([7]; first compound 0.5 µM) of the same molecule?
A: 0.282

Q: And the relative viability ([8]; first compound 0.005 µM)?
A: 1.06

Q: What about the relative viability ([8]; first compound 0.01581 µM) of the same molecule?
A: 1.02

Q: What about the relative viability ([8]; first compound 0.05 µM) of the same molecule?
A: 0.591

Q: What about the relative viability ([8]; first compound 0.1581 µM) of the same molecule?
A: 0.524

Q: What about the relative viability ([8]; first compound 0.5 µM) of the same molecule?
A: 0.436

Q: And the relative viability ([9]; first compound 0.005 µM)?
A: 0.503

Q: And the relative viability ([9]; first compound 0.01581 µM)?
A: 0.406

Q: What about the relative viability ([9]; first compound 0.05 µM) of the same molecule?
A: 0.416

Q: And the relative viability ([9]; first compound 0.1581 µM)?
A: 0.238

Q: And the relative viability ([9]; first compound 0.5 µM)?
A: 0.178

Q: And the relative viability ([10]; first compound 0.005 µM)?
A: 0.361

Q: What about the relative viability ([10]; first compound 0.01581 µM) of the same molecule?
A: 0.264

Q: What about the relative viability ([10]; first compound 0.05 µM) of the same molecule?
A: 0.203

Q: What about the relative viability ([10]; first compound 0.1581 µM) of the same molecule?
A: 0.132

Q: And the relative viability ([10]; first compound 0.5 µM)?
A: 0.119

Q: And the relative viability ([11]; first compound 0.01581 µM)?
A: 0.438

Q: And the relative viability ([11]; first compound 0.05 µM)?
A: 0.356

Q: And the relative viability ([11]; first compound 0.1581 µM)?
A: 0.213

Q: And the relative viability ([11]; first compound 0.5 µM)?
A: 0.118

Q: And the relative viability [12]?
A: 0.425
